Each structure is given as a SMILES string. Numbers after ± are expanded uncertainties.

This is an account of results in the NIST ThermoML archive (doi:10.1016/j.jct.2014.12.023).

This data set is described as follows: activity coefficient (dimensionless); of the first substance listed, at infinite dilution; xn = mol fraction of the nth substance listed. The settings on record: 87.4 kPa, Liquid, Chromatography, x1 = 0.

Regarding `Cc1cccc(C)c1` [1,3-dimethylbenzene] + O=S(=O)([N-]S(=O)(=O)C(F)(F)F)C(F)(F)F.O=S(=O)([N-]S(=O)(=O)C(F)(F)F)C(F)(F)F.c1ccc2cc(C[N+]3(CCCCCCCCC[N+]4(Cc5ccc6ccccc6c5)CCCC4)CCCC3)ccc2c1, the activity coefficient runs as follows: (313 K) 0.857 ± 0.042; (323 K) 0.924 ± 0.042; (333 K) 0.941 ± 0.042; (343 K) 0.996 ± 0.045.

For the compound `CCCC(C)=O` [pentan-2-one] + O=S(=O)([N-]S(=O)(=O)C(F)(F)F)C(F)(F)F.O=S(=O)([N-]S(=O)(=O)C(F)(F)F)C(F)(F)F.c1ccc2cc(C[N+]3(CCCCCCCCC[N+]4(Cc5ccc6ccccc6c5)CCCC4)CCCC3)ccc2c1, the activity coefficient runs as follows: (313 K) 0.432 ± 0.029; (323 K) 0.437 ± 0.029; (333 K) 0.444 ± 0.03; (343 K) 0.448 ± 0.03.

Regarding `CCOC(C)=O` [ethyl acetate] + O=S(=O)([N-]S(=O)(=O)C(F)(F)F)C(F)(F)F.O=S(=O)([N-]S(=O)(=O)C(F)(F)F)C(F)(F)F.c1ccc2cc(C[N+]3(CCCCCCCCC[N+]4(Cc5ccc6ccccc6c5)CCCC4)CCCC3)ccc2c1, the activity coefficient was 0.541 ± 0.032 (313 K), 0.565 ± 0.032 (323 K), 0.601 ± 0.033 (333 K) and 0.628 ± 0.034 (343 K).

Consider `CCO` [ethanol] + O=S(=O)([N-]S(=O)(=O)C(F)(F)F)C(F)(F)F.O=S(=O)([N-]S(=O)(=O)C(F)(F)F)C(F)(F)F.c1ccc2cc(C[N+]3(CCCCCCCCC[N+]4(Cc5ccc6ccccc6c5)CCCC4)CCCC3)ccc2c1, for which the activity coefficient by setting is: (313 K) 1 ± 0.044; (323 K) 1.01 ± 0.045; (333 K) 0.937 ± 0.043; (343 K) 0.891 ± 0.041.

For `CC#N` [acetonitrile] + O=S(=O)([N-]S(=O)(=O)C(F)(F)F)C(F)(F)F.O=S(=O)([N-]S(=O)(=O)C(F)(F)F)C(F)(F)F.c1ccc2cc(C[N+]3(CCCCCCCCC[N+]4(Cc5ccc6ccccc6c5)CCCC4)CCCC3)ccc2c1, the activity coefficient reads like this: (313 K) 0.339 ± 0.028; (323 K) 0.341 ± 0.028; (333 K) 0.349 ± 0.028; (343 K) 0.372 ± 0.029.

For the compound `CC(=O)O` [acetic acid] + O=S(=O)([N-]S(=O)(=O)C(F)(F)F)C(F)(F)F.O=S(=O)([N-]S(=O)(=O)C(F)(F)F)C(F)(F)F.c1ccc2cc(C[N+]3(CCCCCCCCC[N+]4(Cc5ccc6ccccc6c5)CCCC4)CCCC3)ccc2c1, the activity coefficient runs as follows: (313 K) 0.824 ± 0.04; (323 K) 0.767 ± 0.038; (333 K) 0.746 ± 0.036; (343 K) 0.74 ± 0.036.

For `CCCCCCC` [heptane] + O=S(=O)([N-]S(=O)(=O)C(F)(F)F)C(F)(F)F.O=S(=O)([N-]S(=O)(=O)C(F)(F)F)C(F)(F)F.c1ccc2cc(C[N+]3(CCCCCCCCC[N+]4(Cc5ccc6ccccc6c5)CCCC4)CCCC3)ccc2c1, the activity coefficient reads like this: (313 K) 6.72 ± 0.38; (323 K) 5.97 ± 0.33; (333 K) 5.44 ± 0.31; (343 K) 4.65 ± 0.29.

`CCCO` [propan-1-ol] + O=S(=O)([N-]S(=O)(=O)C(F)(F)F)C(F)(F)F.O=S(=O)([N-]S(=O)(=O)C(F)(F)F)C(F)(F)F.c1ccc2cc(C[N+]3(CCCCCCCCC[N+]4(Cc5ccc6ccccc6c5)CCCC4)CCCC3)ccc2c1: the activity coefficient (313 K) came out at 1.33 ± 0.083, the activity coefficient (323 K) worked out at 1.07 ± 0.057, the activity coefficient (333 K) was found to be 1.02 ± 0.045 and the activity coefficient (343 K) worked out at 1.01 ± 0.044.

As for `CCCCCCCC` [octane] + O=S(=O)([N-]S(=O)(=O)C(F)(F)F)C(F)(F)F.O=S(=O)([N-]S(=O)(=O)C(F)(F)F)C(F)(F)F.c1ccc2cc(C[N+]3(CCCCCCCCC[N+]4(Cc5ccc6ccccc6c5)CCCC4)CCCC3)ccc2c1, the activity coefficient (313 K) stood at 8.51 ± 0.48, the activity coefficient (323 K) amounted to 7.57 ± 0.41, the activity coefficient (333 K) turned out to be 7.4 ± 0.39 and the activity coefficient (343 K) came to 6.71 ± 0.37.
